Assay results reported in PMC7732128, “Regulation of gene transcription by thyroid hormone receptor β agonists in clinical development for the treatment of non-alcoholic steatohepatitis (NASH)” (PLoS ONE, 2020).
“Also recorded” adds a separate entry of the source. Where two headings read alike, the source gives them in different places.

Experiments:
HFD fed rats = experiment: High-fat diet fed rat study: serum and hepatic lipid levels; assay type: in vivo
Procedure: Animals were purchased from Vital River Laboratory Animal Technology Co. Ltd. and experiments were conducted at Covance Pharmaceutical R&D (Shanghai) Co., Ltd. (China). Animals were group-housed in polycarbonate cages with corncob bedding under controlled temperature (21–25°C), humidity (40–70%), and a 12-hr light/dark cycle. All procedures performed were in compliance with local animal welfare legislation, Covance global policies and procedures, and the Guide for the Care and Use of Laboratory Animals.
(§1) Eighty-four male Sprague Dawley rats, approximately 8 to 11 weeks of age, were fed with either a normal diet, ND (D12450K: 10 kcal% fat, no sucrose), or high-fat diet, HFD (D12109C: 40 kcal% fat, 1.25 gm% cholesterol, 0.5 gm% sodium cholate, 12.5 gm% sucrose). After 12 days of diet consumption, baseline serum total cholesterol and low-density lipoprotein cholesterol (LDL-C) levels were measured with the cobas 6000 c501 Chemistry Analyzer (Roche) to confirm hypercholesterolemia in the HFD fed rats. Animals were then randomized into treatment groups.
(§2) Twenty-four hrs after dosing, animals were euthanized by CO2 inhalation and serum and plasma were collected along with liver tissue. Serum total cholesterol and LDL-C levels were determined as described above. […] Caudate lobes of the liver were used for analysis of hepatic total cholesterol (Abcam, ab65390) and triglyceride levels (Abcam, ab65336) via enzyme-linked immunosorbent assay. Right lateral lobes were stored in RNAlater (Invitrogen, AM7020) at -70°C until homogenization with the Scientz-48 TissueLyser LT for downstream gene expression analysis. RNA extraction was performed at WuXi AppTec (Hong Kong) Limited (China) with the RNeasy Mini Kit (Qiagen, 74106) and RNA concentration and quality was determined using the Nanodrop 2000 (Thermo Scientific); additional quality control was assessed with agarose gel electrophoresis. One μg total RNA from each sample was then reverse-transcribed using the High Capacity cDNA Reverse Transcription kit (Applied Biosystems, 4368814) and the resulting cDNA was diluted 1:5 with nuclease-free, distilled water. Gene expression was measured using TaqMan Fast Advanced Master Mix and the following TaqMan Gene Expression assays: Actb (Rn00667869_m1), Cpt1a (Rn00580702_m1), Dio1 (Rn00572183_m1), Me1 (Rn00561502_m1), Rplp1 (Rn03467157_gH), and Thrsp (Rn01511034_m1). Actb and Rplp1 served as control housekeeping genes. Ten μL reactions were run on the qTOWER³ 84. Relative quantification (RQ) of gene expression was calculated via the 2^−ΔΔCt method and statistical analysis was performed in GraphPad Prism 8.0 and Microsoft Excel.

[1] = system: THR (liver Cpt1a, Dio1, Me1, Thrsp RNA); experiment: High-fat diet fed rat study: liver gene expression; assay type: in vivo; settings: HFD rats
Procedure: as §1
as §2, with “Serum” for “Twenty-four hrs after dosing, animals were euthanized by CO2 inhalation and serum and plasma were collected along with liver tissue. Serum”

[2] = High-fat diet fed rat study: plasma compound concentration (LC-MS/MS); assay type: in vivo; settings: male, Sprague Dawley, po, HFD rats, read-out: Plasma AUC0-24hrs
Procedure: as §1
as §2, with “Ten μL reactions were run on the qTOWER³ 84.” left out

healthy volunteers = settings: two weeks, ≥ 80 mg; cited from earlier work
[3] = system: hepatic OATP1B1/B3 transporters; design: method as in PMID 19785645; settings: cited from earlier work
[4] = design: method as in doi:10.1016/s0735-1097(16)31933-7; settings: 14-day treatment, ≥ 5 mg; cited from earlier work
cholesterol-fed rat = system: cholesterol-fed rat; design: method as in PMID 18975928; settings: cited from earlier work
THRβ over THRα = settings: from ligand-binding affinities (Kd or Ki); cited from earlier work
THRβ (α:β) = system: THRβ (α:β); design: method as in PMID 32768645; settings: coactivator recruitment assay; cited from earlier work
[5] = 0.5 mg/kg P.O. single dose, 24 hrs
[6] = 5.0 and 1.5 mg/kg P.O. single dose, 24 hrs post-dose
[7] = 4 hrs after 5.0 or 1.5 mg/kg, vs vehicle

## CC(C)c1cc(Oc2c(Cl)cc(-n3nc(C#N)c(=O)[nH]c3=O)cc2Cl)n[nH]c1=O [MGL-3196, 2-[3,5-dichloro-4-(5-isopropyl-6-oxo-1,6-dihydropyridazin-3-yloxy)phenyl]-3,5-dioxo-2,3,4,5-tetrahydro[1,2,4]triazine-6-carbonitrile]
HFD fed rats; [5]
  effect on serum LDL-C: did not significantly lower
  effect on serum total cholesterol: no significant effect; also recorded: did not significantly lower
  effect on serum triglyceride levels: did not have a significant effect; also recorded: did not significantly lower
HFD fed rats; 1.5 mg/kg P.O. single dose
  decrease in serum triglyceride levels (pre-dose vs 24 hrs post-dose): 37.5%
HFD fed rats; 5 mg/kg P.O. single dose
  decrease in serum total cholesterol (pre-dose vs 24 hrs post-dose): 33.6%
HFD fed rats; 5.0 mg/kg P.O. single dose
  decrease in serum triglyceride levels (pre-dose vs 24 hrs post-dose): 32.1%
HFD fed rats; [6]
  effect on hepatic cholesterol levels: did not significantly affect
  effect on hepatic triglyceride levels: did not significantly affect
[1]; [7]
  liver Cpt1a, Dio1 and Thrsp RNA levels: activated the transcription of Cpt1a, Dio1, and Thrsp in a dose-dependent manner
  liver Me1 RNA level: no significant increase
[1]; 24 hrs after 5.0 or 1.5 mg/kg
  increases in liver Cpt1a and Thrsp RNA levels: dampened
[1]; 24 hrs after 5.0 or 1.5 mg/kg, vs vehicle
  liver Dio1 and Me1 transcription: significantly increased
[1]; between 1.5 and 5 mg/kg
  increase in liver Dio1 expression between doses: 1.3 fold
[2]; 0.5 mg/kg P.O. single dose
  AUC(0-t): 2600 ng·h/mL
[2]; 1.5 mg/kg P.O. single dose
  AUC(0-t): 8200 ng·h/mL
[2]; 5.0 mg/kg P.O. single dose
  AUC(0-t): 21700 ng·h/mL
Healthy volunteers
  reduction in LDL-C: 21.8–30.3%
  reduction in total cholesterol: 16.0–22.8%
[3]
  transporter substrate: substrate

## Cc1cc(OCP2(=O)OCC[C@@H](c3cccc(Cl)c3)O2)cc(C)c1Cc1ccc(O)c(C(C)C)c1 (stereo partly drawn) [VK2809]
[4]
  reduction in LDL-C: up to 41.2%
cholesterol-fed rat; single dose 0.5 mg/kg
  reduction in total cholesterol: 36%
cholesterol-fed rat; single dose 3.0 mg/kg
  decrease in total cholesterol: ≤ 55%

## Cc1cc(OCP(=O)(O)O)cc(C)c1Cc1ccc(O)c(C(C)C)c1 [VK2809A]
THRβ over THRα
  selectivity for THRβ over THRα: 15.8 fold
THRβ (α:β)
  selectivity for THRβ (α:β): 2.1
